Results taken from the NIST ThermoML archive (doi:10.1016/j.fluid.2019.03.023).
Numbers after ± are expanded uncertainties.

Experiment: activity coefficient (dimensionless); of the first substance listed, at infinite dilution; xn = mol fraction of the nth substance listed
Conditions: 101.33 kPa, Liquid, Chromatography, x1 = 0

Compound	activity coefficient (313.15 K)	activity coefficient (323.15 K)	activity coefficient (333.15 K)	activity coefficient (343.15 K)
Cc1ccccc1C [1,2-dimethylbenzene] + CCCCCCCCCCCCCC[P+](CCCCCC)(CCCCCC)CCCCCC.N#C[N-]C#N	0.525 ± 0.057	0.566 ± 0.061	0.613 ± 0.065	0.651 ± 0.069
Cc1cccc(C)c1 [1,3-dimethylbenzene] + CCCCCCCCCCCCCC[P+](CCCCCC)(CCCCCC)CCCCCC.N#C[N-]C#N	0.633 ± 0.067	0.654 ± 0.069	0.689 ± 0.072	0.716 ± 0.075
Cc1ccc(C)cc1 [1,4-dimethylbenzene] + CCCCCCCCCCCCCC[P+](CCCCCC)(CCCCCC)CCCCCC.N#C[N-]C#N	0.602 ± 0.064	0.64 ± 0.068	0.68 ± 0.071	0.706 ± 0.074
C=CCCCCCCCC [1-decene] + CCCCCCCCCCCCCC[P+](CCCCCC)(CCCCCC)CCCCCC.N#C[N-]C#N	1.58 ± 0.17	1.77 ± 0.18	1.98 ± 0.21	2.19 ± 0.23
C=CCCCCC [1-heptene] + CCCCCCCCCCCCCC[P+](CCCCCC)(CCCCCC)CCCCCC.N#C[N-]C#N	1.09 ± 0.11	1.13 ± 0.12	1.17 ± 0.12	1.22 ± 0.13
C#CCCCCC [1-heptyne] + CCCCCCCCCCCCCC[P+](CCCCCC)(CCCCCC)CCCCCC.N#C[N-]C#N	0.485 ± 0.054	0.57 ± 0.061	0.644 ± 0.068	0.721 ± 0.075
C#CCCCC [1-hexyne] + CCCCCCCCCCCCCC[P+](CCCCCC)(CCCCCC)CCCCCC.N#C[N-]C#N	0.442 ± 0.05	0.513 ± 0.056	0.593 ± 0.063	0.669 ± 0.07
C=CCCCCCCC [1-nonene] + CCCCCCCCCCCCCC[P+](CCCCCC)(CCCCCC)CCCCCC.N#C[N-]C#N	1.41 ± 0.15	1.53 ± 0.16	1.67 ± 0.17	1.82 ± 0.19
C=CCCC [1-pentene] + CCCCCCCCCCCCCC[P+](CCCCCC)(CCCCCC)CCCCCC.N#C[N-]C#N	0.796 ± 0.082	0.858 ± 0.088	0.922 ± 0.094	0.994 ± 0.1
C#CCCC [1-pentyne] + CCCCCCCCCCCCCC[P+](CCCCCC)(CCCCCC)CCCCCC.N#C[N-]C#N	0.413 ± 0.048	0.465 ± 0.052	0.547 ± 0.059	0.619 ± 0.066
CCC(C)(C)C [2,2-dimethylbutane] + CCCCCCCCCCCCCC[P+](CCCCCC)(CCCCCC)CCCCCC.N#C[N-]C#N	1.11 ± 0.11	1.2 ± 0.12	1.28 ± 0.13	1.35 ± 0.14
CC(C)=O [acetone] + CCCCCCCCCCCCCC[P+](CCCCCC)(CCCCCC)CCCCCC.N#C[N-]C#N	0.35 ± 0.043	0.363 ± 0.044	0.383 ± 0.045	0.405 ± 0.047
CC#N [acetonitrile] + CCCCCCCCCCCCCC[P+](CCCCCC)(CCCCCC)CCCCCC.N#C[N-]C#N	0.574 ± 0.062	0.6 ± 0.064	0.624 ± 0.066	0.651 ± 0.069
c1ccccc1 [benzene] + CCCCCCCCCCCCCC[P+](CCCCCC)(CCCCCC)CCCCCC.N#C[N-]C#N	0.319 ± 0.04	0.363 ± 0.044	0.403 ± 0.047	0.44 ± 0.05
CCCCO [butan-1-ol] + CCCCCCCCCCCCCC[P+](CCCCCC)(CCCCCC)CCCCCC.N#C[N-]C#N	0.421 ± 0.048	0.445 ± 0.05	0.453 ± 0.051	0.47 ± 0.052
CCC(C)=O [butanone] + CCCCCCCCCCCCCC[P+](CCCCCC)(CCCCCC)CCCCCC.N#C[N-]C#N	0.422 ± 0.048	0.448 ± 0.051	0.478 ± 0.053	0.513 ± 0.056
C1CCCCC1 [cyclohexane] + CCCCCCCCCCCCCC[P+](CCCCCC)(CCCCCC)CCCCCC.N#C[N-]C#N	0.733 ± 0.076	0.78 ± 0.081	0.832 ± 0.085	0.901 ± 0.092

Compound	activity coefficient (313.15 K)	activity coefficient (323.15 K)	activity coefficient (333.15 K)	activity coefficient (343.15 K)
C1=CCCCC1 [cyclohexene] + CCCCCCCCCCCCCC[P+](CCCCCC)(CCCCCC)CCCCCC.N#C[N-]C#N	0.647 ± 0.068	0.709 ± 0.074	0.76 ± 0.079	0.813 ± 0.084
C1CCCCCCC1 [cyclooctane] + CCCCCCCCCCCCCC[P+](CCCCCC)(CCCCCC)CCCCCC.N#C[N-]C#N	0.89 ± 0.091	0.928 ± 0.095	0.978 ± 0.099	1.05 ± 0.11
CCCCCCCCCC [decane] + CCCCCCCCCCCCCC[P+](CCCCCC)(CCCCCC)CCCCCC.N#C[N-]C#N	2.19 ± 0.23	2.34 ± 0.25	2.54 ± 0.27	2.74 ± 0.29
CCO [ethanol] + CCCCCCCCCCCCCC[P+](CCCCCC)(CCCCCC)CCCCCC.N#C[N-]C#N	0.339 ± 0.042	0.359 ± 0.043	0.383 ± 0.045	0.401 ± 0.047
CCc1ccccc1 [ethylbenzene] + CCCCCCCCCCCCCC[P+](CCCCCC)(CCCCCC)CCCCCC.N#C[N-]C#N	0.567 ± 0.061	0.606 ± 0.064	0.653 ± 0.069	0.7 ± 0.073
CCCCCCC [heptane] + CCCCCCCCCCCCCC[P+](CCCCCC)(CCCCCC)CCCCCC.N#C[N-]C#N	1.36 ± 0.14	1.43 ± 0.15	1.52 ± 0.16	1.61 ± 0.17
C=CCCCC [hex-1-ene] + CCCCCCCCCCCCCC[P+](CCCCCC)(CCCCCC)CCCCCC.N#C[N-]C#N	0.915 ± 0.093	0.979 ± 0.1	1.06 ± 0.11	1.11 ± 0.11
CCCCCC [hexane] + CCCCCCCCCCCCCC[P+](CCCCCC)(CCCCCC)CCCCCC.N#C[N-]C#N	1.16 ± 0.12	1.24 ± 0.13	1.32 ± 0.14	1.39 ± 0.14
CO [methanol] + CCCCCCCCCCCCCC[P+](CCCCCC)(CCCCCC)CCCCCC.N#C[N-]C#N	0.306 ± 0.04	0.323 ± 0.041	0.344 ± 0.042	0.361 ± 0.044
CCCCCCCCC [nonane] + CCCCCCCCCCCCCC[P+](CCCCCC)(CCCCCC)CCCCCC.N#C[N-]C#N	1.8 ± 0.19	1.93 ± 0.2	2.09 ± 0.22	2.24 ± 0.23
CCCCC [pentane] + CCCCCCCCCCCCCC[P+](CCCCCC)(CCCCCC)CCCCCC.N#C[N-]C#N	1 ± 0.1	1.06 ± 0.11	1.12 ± 0.11	1.19 ± 0.12
CCCO [propan-1-ol] + CCCCCCCCCCCCCC[P+](CCCCCC)(CCCCCC)CCCCCC.N#C[N-]C#N	0.396 ± 0.046	0.41 ± 0.047	0.424 ± 0.049	0.443 ± 0.05
C1CCOC1 [tetrahydrofuran] + CCCCCCCCCCCCCC[P+](CCCCCC)(CCCCCC)CCCCCC.N#C[N-]C#N	0.351 ± 0.043	0.365 ± 0.044	0.384 ± 0.045	0.404 ± 0.047
c1ccsc1 [thiophene] + CCCCCCCCCCCCCC[P+](CCCCCC)(CCCCCC)CCCCCC.N#C[N-]C#N	0.372 ± 0.044	0.383 ± 0.045	0.412 ± 0.048	0.429 ± 0.049
Cc1ccccc1 [toluene] + CCCCCCCCCCCCCC[P+](CCCCCC)(CCCCCC)CCCCCC.N#C[N-]C#N	0.419 ± 0.048	0.458 ± 0.051	0.489 ± 0.054	0.523 ± 0.057
O [water] + CCCCCCCCCCCCCC[P+](CCCCCC)(CCCCCC)CCCCCC.N#C[N-]C#N	1.95 ± 0.2	1.82 ± 0.19	1.73 ± 0.18	1.6 ± 0.17
